Biological target: T1, Streptokinase A (Streptococcus pyogenes serotype M1, UniProt P10520)
T1 sequence (P10520 whole entry): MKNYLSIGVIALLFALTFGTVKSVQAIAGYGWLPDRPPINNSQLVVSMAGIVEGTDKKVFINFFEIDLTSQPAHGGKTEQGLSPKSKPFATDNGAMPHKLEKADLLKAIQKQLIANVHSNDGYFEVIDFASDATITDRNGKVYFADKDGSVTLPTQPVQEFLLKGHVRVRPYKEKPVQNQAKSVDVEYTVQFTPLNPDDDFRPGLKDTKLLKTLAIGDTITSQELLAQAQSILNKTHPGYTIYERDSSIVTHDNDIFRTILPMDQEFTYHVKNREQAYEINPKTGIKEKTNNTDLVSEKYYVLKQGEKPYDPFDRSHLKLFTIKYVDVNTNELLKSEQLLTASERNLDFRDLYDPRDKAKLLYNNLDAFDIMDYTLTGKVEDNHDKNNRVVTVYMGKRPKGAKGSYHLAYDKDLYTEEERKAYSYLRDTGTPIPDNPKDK
Test: S. pyogenes streptokinase expression inhibitors, potency, dose response, plasminogen activation absorbance, OD405 (AID 1914)

Going from `CN(C)CCN=CC(C(=O)Nc1ccc(Cl)cc1Cl)C(=O)Nc1ccc(Cl)cc1Cl` [N~1~,N~3~-bis(2,4-dichlorophenyl)-2-({[2-(dimethylamino)ethyl]amino}methylene)malonamide] to `CC(Oc1ccc(Cl)cc1Cl)C(=O)Nc1cc(=O)n(-c2ccccc2)[nH]1` (stereo not drawn) [SMR000195064], the EC50 falls from greater than 150 µM to 123 µM. The second is the more potent here.

Compared with `N#CC1C(=N)SC(=N)C(C#N)C1c1c(Cl)cccc1Cl` (stereo not drawn) [SMR000009709], `N#Cc1c(-c2c(Cl)cccc2Cl)noc1CC=Nc1ccc(C(=O)O)cc1` [SMR000337673] is higher in EC50: 93.5 µM for the first, greater than 150 µM for the second.

`CCN(CC)c1ccc(C=NC(C#N)C(=N)C#N)cc1` (stereo not drawn) [SMR000023871] and `C=CCN1C(=O)NC(=O)C(=C(C)Nc2ccc(N(CC)CC)cc2)C1=O` [SMR000043704] cannot be ordered by EC50: greater than 150 µM for the first, greater than 150 µM for the second.

`Fc1ccc(Br)cc1C1CC(c2ccc(Br)s2)=Nc2ncnn21` (stereo not drawn) [SMR000032932] and `Cc1ccc(O)c(C2CC(c3ccc(Cl)cc3)N=N2)c1` (stereo not drawn) [SMR000414826] cannot be ordered by EC50: greater than 150 µM for the first, greater than 150 µM for the second.

`CCCCN1C(=O)NC(=O)C(=C(C)Nc2ccc(OCC)cc2)C1=O` [SMR000058103] and `CCCCCCC(=O)NNC=C1C(=O)NC(=S)N(C(C)CC)C1=O` (stereo not drawn) [SMR000439319] cannot be ordered by EC50: greater than 150 µM for the first, greater than 150 µM for the second.

Going from `CCc1ccc(C2C(C#N)C(=N)C(C#N)(C#N)C3=CCC(C(C)(C)C)CC32)cc1` (stereo not drawn) [SMR000115124] to `COC(=O)c1sc(N2C(=O)C(=O)C(C(=O)c3ccc(C)o3)C2c2ccc([N+](=O)[O-])cc2)nc1C` (stereo not drawn) [methyl 2-[4-hydroxy-3-(5-methylfuran-2-carbonyl)-2-(4-nitrophenyl)-5-oxo-2H-pyrrol-1-yl]-4-methyl-1,3-thiazole-5-carboxylate], the EC50 rises from 5.84 µM to greater than 150 µM.

`CCCc1sc(N=NCc2ccccn2)nc1-c1ccc(F)cc1` [SMR000116776] and `CCCc1sc(N=NCc2ccccn2)nc1-c1ccc(Br)cc1` [SMR000116777] cannot be ordered by EC50: greater than 150 µM for the first, greater than 150 µM for the second.

Going from `Oc1ccc2ccccc2c1CN=Nc1nnc(-c2ncc[nH]2)c2ccccc12` [SMR000151639] to `Cc1ccccc1CN=Nc1nc2ccccc2[nH]1` [SMR000305031], the EC50 rises from 5.52 µM to greater than 150 µM. The first is the more potent here.

Going from `O=C1C2C(=NC(=S)NC2c2ccc(Cl)cc2)NC(c2ccc(Cl)cc2)N1c1ccc(Cl)cc1` (stereo not drawn) [SMR000155440] to `C=c1[nH][nH]c(=O)c1=Cc1cn(-c2ccccc2)nc1-c1ccc(Cl)cc1` [SMR000193592], the EC50 falls from greater than 150 µM to 4.83 µM. The second is the more potent here.

`CCn1cc(C(=O)O)c(=O)c2cc(F)c(N=NCc3ccccc3[N+](=O)[O-])cc21` [SMR000171611] and `COc1cccc(CN=Nc2cc(C)nc(-c3ccccc3O)n2)c1O` [SMR000274167] cannot be ordered by EC50: greater than 150 µM for the first, greater than 150 µM for the second.

`Cc1cc(=O)n(-c2nc(-c3ccccc3)cs2)[nH]1` [SMR000175888] and `CN1C(=O)C(=NNc2nc(-c3ccccc3)cs2)c2ccccc21` [SMR000243133] are within 1.5-fold of each other in EC50: 10 µM for the first, 7.09 µM for the second.

`COc1ccccc1CN=Nc1cc(C)nc(-n2nc(C)cc2C)n1` [SMR000212744] and `CC(N=Nc1nc2ccccc2[nH]1)c1ccc2c(c1)OCO2` (stereo not drawn) [SMR000354227] cannot be ordered by EC50: greater than 150 µM for the first, greater than 150 µM for the second.

First: Oc1ccc(CN=Nc2nc(-c3ccc(Cl)cc3)cc(C(F)(F)F)n2)cc1 [SMR000212812]
Second: Oc1nc(Nc2ccccn2)sc1Cc1ccc(Cl)cc1 [SMR000288952]
The EC50 of the first is lower: 16.3 µM for the first, greater than 150 µM for the second.

`O=C(CC1=NC2(CCCC2)Cc2ccccc21)C(=O)NN=Cc1ccccc1O` [SMR000219463] and `O=C(O)COc1ccc(CN=Nc2nc(Nc3ccccc3)nc(N3CCCCC3)n2)cc1` [SMR000312685] cannot be ordered by EC50: greater than 150 µM for the first, greater than 150 µM for the second.

Compared with `COc1cc(CN=Nc2ncnc3sc4c(c23)CCC4)ccc1O` [SMR000242188], `COc1cccc(C(=O)Oc2ccc(CN=Nc3ccc(C(=O)O)cc3)cc2OC)c1` [SMR000502791] is higher in EC50: 5.06 µM for the first, greater than 150 µM for the second. The first is the more potent here.

`CN1C(=O)/C(=N\NC(=O)c2cc(-c3cccs3)nc3ccccc23)c2ccccc21` [SMR000242891] and `O=C1C(=NNC(=S)Nc2ccccc2F)c2ccccc2N1Cc1ccccc1` [SMR000314861] cannot be ordered by EC50: greater than 150 µM for the first, greater than 150 µM for the second.

`CC(C)c1ccc2c(c1)=C(NNC(=O)c1cccc(S(=O)(=O)N3CCCCC3)c1)C(=O)N=2` [SMR000243307] and `CN1C(=O)C(=NNC(=S)Nc2ccccc2F)c2cc(S(=O)(=O)N3CCOCC3)ccc21` [SMR000314843] cannot be ordered by EC50: greater than 150 µM for the first, greater than 150 µM for the second.

Going from `CC1=C2C(=NC3=C(C(=O)c4ccccc43)C2c2c(C)cc(C)cc2C)N(c2ccccn2)N1` (stereo not drawn) [SMR000263933] to `Cc1cc(C)c2c(c1)C(=NNc1ccc(C(=O)O)cc1)C(O)=N2` [SMR000592331], the EC50 rises from 22.2 µM to greater than 150 µM. The first is the more potent here.

Compared with `CC(=N)C(C#N)C(=O)COC(=O)c1cc(-c2ccc(Br)cc2)nc2ccccc12` (stereo not drawn) [SMR000264784], `CC(=NNC(=N)Sc1cc(O)n(-c2ccc(Br)cc2)c1O)c1cccs1` [[1-(4-bromophenyl)-2,5-bis(oxidanylidene)pyrrolidin-3-yl] N''-(1-thiophen-2-ylethylideneamino)carbamimidothioate] is 2-fold higher in EC50: 4.43 µM for the first, 9.08 µM for the second. The first is the more potent here.

First: Cc1cc2nc(-n3c(O)c[nH]c3=S)sc2cc1C [SMR000272190]
Second: CC1=CC(C)(C)N2C(=O)/C(=N\N)c3c(C)c(C)cc1c32 [SMR000414935]
The EC50 of the first is higher: greater than 150 µM for the first, 16.3 µM for the second.

Going from `CCC1C(c2ccccc2)NC(c2ccccc2)C(CC)C1N=O` (stereo not drawn) [SMR000283074] to `CC(C)COC(=O)c1cccc2c1-c1ccccc1C2N=O` (stereo not drawn) [isobutyl 9-(hydroxyimino)-9H-fluorene-4-carboxylate], the EC50 rises from 13.3 µM to 50 µM (3.8-fold).

`Cc1cc(C)n(C(=O)C(C#N)N=Nc2cc(Cl)cc(Cl)c2)n1` (stereo not drawn) [SMR000335596] and `C[N+](C)(C)c1ccc(CN=Nc2nc(Cl)c(C#N)c(Cl)c2Cl)cc1` [trimethyl-[4-[[(3,4,6-trichloro-5-cyanopyridin-2-yl)hydrazinylidene]methyl]phenyl]azanium;iodide] cannot be ordered by EC50: greater than 150 µM for the first, greater than 150 µM for the second.

Going from `O=C(N/N=C/C1C=C(Cl)C=C([N+](=O)[O-])C1=O)c1ccccc1NS(=O)(=O)c1cccs1` (stereo not drawn) [SMR000364876] to `O=C(CSc1ccc(Cl)cc1)Nc1cc(=O)n(-c2ccccc2)[nH]1` [SMR000672521], the EC50 falls from greater than 150 µM to 9.33 µM. The second is the more potent here.

`COc1ccc(NC(=S)NNC2=c3ccccc3=NC2=O)cc1` [SMR000413743] and `CSc1cccc(-c2nnc(NC(=O)c3cccc(-n4c(O)ccc4O)c3)o2)c1` [SMR000811880] cannot be ordered by EC50: greater than 150 µM for the first, greater than 150 µM for the second.

`O=C1C(Br)=CC([N+](=O)[O-])=C/C1=C\NNC(=O)C12CC3CCC(CC(C3)C1)C2` [SMR000414723] and `CNC(=O)c1c(NC(=O)c2ccc(-n3c(O)ccc3O)cc2)sc2c1CCC(C)C2` (stereo not drawn) [SMR000806319] cannot be ordered by EC50: greater than 150 µM for the first, greater than 150 µM for the second.

`CC1CC(C)(C)N2C(=O)/C(=N\NC(N)=S)c3cccc1c32` (stereo not drawn) [SMR000414933] and `CCN1C(=O)C(C=NN=Cc2ccccc2)c2ccc(C3=NNC(=O)CC3)cc21` (stereo not drawn) [benzaldehyde {[1-ethyl-2-oxo-6-(6-oxo-1,4,5,6-tetrahydro-3-pyridazinyl)-1,2-dihydro-3H-indol-3-ylidene]methyl}hydrazone] cannot be ordered by EC50: greater than 150 µM for the first, greater than 150 µM for the second.

For `O=C1C(=O)N(Cc2ccco2)C(c2cccc(Cl)c2)C1C(=O)c1ccco1` (stereo not drawn) [SMR000665558], the EC50 was greater than 150 µM.

Source: BindingDB's records for doi:10.7270/Q2736PBV (Broad Institute, 2009)
